Assay results: PubChem BioAssay (NCI)
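Protocol summary: plate cells (96-well), add compound at 5 concentrations, incubate 48 h, interpolate endpoints linearly. TGI marks complete inhibition of growth.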

Tests used:
Assay in all cases: NCI tumour cell line growth inhibition, 48 h
[1] = system: SNB-75 CNS
[2] = system: OVCAR-8 ovarian
[3] = system: OVCAR-3 ovarian
[4] = system: K-562 leukemia
[5] = system: M14 melanoma
[6] = system: MDA-MB-231 breast
[7] = system: SF-539 CNS
[8] = system: UACC-62 melanoma
[9] = system: RXF 393 renal
[10] = system: HS 578T breast
[11] = system: T-47D breast
[12] = system: A498 renal
[13] = system: SK-OV-3 ovarian
[14] = system: UACC-257 melanoma
[15] = system: ACHN renal
[16] = system: HOP-62 NSCLC
[17] = system: EKVX NSCLC
[18] = system: SNB-19 CNS
[19] = system: PC-3 prostate
[20] = system: NCI-H226 lung
[21] = system: U251 CNS
[22] = system: CAKI-1 renal
[23] = system: NCI-H460 lung
[24] = system: SK-MEL-28 melanoma
[25] = system: HOP-92 NSCLC
[26] = system: MDA-N
[27] = system: SK-MEL-5 melanoma
[28] = system: OVCAR-5 ovarian
[29] = system: RPMI-8226 leukemia
[30] = system: KM12 colon
[31] = system: NCI-H23 lung
[32] = system: SK-MEL-2 melanoma
[33] = system: MCF7 breast
[34] = system: SW-620 colon
[35] = system: LOX IMVI melanoma
[36] = system: SN12C renal
[37] = system: SF-295 CNS
[38] = system: A549 NSCLC
[39] = system: UO-31 renal
[40] = system: HCT-116 colon
[41] = system: CCRF-CEM leukemia
[42] = system: HCT-15 colon
[43] = system: TK-10 renal
[44] = system: NCI-H522 lung
[45] = system: BT-549 breast
[46] = system: SF-268 CNS
[47] = system: MDA-MB-435
[48] = system: 786-0 renal
[49] = system: COLO 205 colon
[50] = system: OVCAR-4 ovarian
[51] = system: HL-60(TB) leukemia
[52] = system: HT29 colon
[53] = system: MALME-3M melanoma
[54] = system: IGROV1 ovarian
[55] = system: DU-145 prostate
[56] = system: NCI/ADR-RES ovarian
[57] = system: SR leukemia
[58] = system: HCC-2998 colon
[59] = system: MOLT-4 leukemia

Measured: TGI

Cc1ccc(N=Nc2c(O)c3ccccc3[nH]c2=O)c(S(=O)(=O)N(C)C)c1
not listed: [57] | [58] | [59]
> 100 µM: all other assays above

CN1CC(c2ccccc2)=Cc2c1ccc(N)c2N=N
67.9 µM: [22]
not listed: [9] | [12] | [25] | [49] | [51] | [55]
> 100 µM: all other assays above
